According to patent publication US20230202982A1, “5-CHLORO-4-HYDROXY-1-METHYL-2-OXO-N-PHENYL-QUINOLINE-3-CARBOXAMIDE POTASSIUM SALT FOR TREATING INFLAMMATORY BOWEL DISEASES” (Aqilion AB, priority 2020, published 2023):
In brackets after ≈: the same amount, converted by molar mass. Entries after “also recorded” stand apart in the source; their conditions may differ. Structures can show the parent of a compound that is named as a salt.

Experiments:
[1] = Hygroscopicity by Dynamic Vapour Sorption (DVS); type: physicochemical; conditions: 25° C.; for Hygroscopicity: DVS, 0 to 90% RH; for Reversible weight gain (DVS): analysed to 80% RH
Description: Dynamic Vapour Sorption (DVS) analysis was carried out on a sample of Example compound 1.
Approximately 20 mg of sample was placed into a wire-mesh vapour sorption balance pan and loaded into an ‘IgaSorp’ vapour sorption balance (Hiden Analytical Instruments). The sample was then dried by maintaining a 0% humidity environment until no further weight change was recorded.
The sample was then subjected to a step profile from 0 to 90% RH at 10% RH increments. The desorption isotherm was from 90% RH o 0% RH in 10% RH steps. The weight change during the sorption/desorption cycles were then monitored, allowing for the hygroscopic nature of the sample to be determined. Analysis was performed using the following parameters: • Analysis Mode F1 • Wait Time 99% • Sample Temperature 25° C. • Min Time Out 30 Mins • MaxTime Out 180 Mins • Gas Flow Rate 250 ml/min

[2] = Thermogravimetric analysis (TGA) and differential scanning calorimetry (DSC); type: physicochemical; conditions: heating 20° C./min, nitrogen
Description: For the TGA analysis, approximately 5-10 mg of sample of Example Compound 1 was accurately weighed into a pierced Tzero aluminium pan and sealed with a pinhole lid using a crimper. The sample was then loaded into the chamber of a TGA thermal analyser at ambient temperature. A TA Instruments TGA5500 device was used. The sample was then heated at a rate of 20° C./min from 20° C. to 400° C. The purge gas used was nitrogen at a flow rate of 50 cm^3/min.
For the DSC analysis, approximately 2 mg of sample was accurately weighed into a pierced Tzero aluminium pan and sealed using a universal crimper. The sample was then loaded into the chamber of a DSC analyser at ambient temperature. A TA Instruments DSC2500 device was used. The sample was then heated at a rate of 20° C./min from 30° C. to 400° C. The purge gas used was nitrogen at a flow rate of 50 cm^3/min

[3] = Slurry in water for 48 hours, re-examined by XRPD (disproportionation); type: physicochemical; conditions: slurry in water 20 mg / 400 uL, ambient temperature
Description: When a sample of Example compound 1 was stored in a slurry in water at 20 mg / 400uL for 48 hours at ambient temperature, recovered, dried by evaporation and re-examined by XRPD, there was no change in the X-ray diffractogram.

[4] = Solubility in PBS (pH 7.4) and simulated colonic fluid, saturated solutions by HPLC-UV; type: physicochemical; conditions: saturated solution, ambient temperature
Description: The solubility and stability at room temperature of Example compound 1 and the free acid compound 5-chloro-4-hydroxy-1-methyl-2-oxo-N-phenyl-quinoline-3-carboxamide (described in Example 1a) above) was determined in PBS (pH 7.4) and in simulated colonic fluid (SCF) at ambient temperature. The SCF was the product FaSSCof obtained from Biorelevant.com prepared according to the manufacturer’s instructions. FaSSCof contains 0.15 mM sodium cholate, 0.3 mM Phospholipids, 0.1 mM Oleate, 120 mM sodium hydroxide, 45 mM TRIS and 76 mM maleate.
Saturated solutions were prepared in these solvents and the concentrations/impurity profile was determined by HPLC-UV using a calibration curve in the range of 1 to 150 µg/ml at 300 nm or 320 nm. Visual evaluation was also performed after every step over the testing period.

[5] = test system: Ulcerative Colitis modelled by Dextran Sulphate Sodium (DSS); test: DSS mouse model of Ulcerative Colitis; type: in vivo, C57B1/6 mice; conditions: 1 mg/kg daily oral; for Colitis clinical score: Day 9, vs vehicle-treated controls, FIG. 8; for Colon length: Day 10 termination, FIG. 10
Description: Ulcerative Colitis was modelled in C57B1/6 mice by administering Dextran Sulphate Sodium (DSS) in drinking water (1.5% w/v) for 5 days. Mice were monitored daily for weight loss and clinical symptoms of disease for 10 days starting at the beginning of DSS administration.
Anti-TNFα antibody was administered at 500 µg/treatment on Days 0, 2, 4, and 6. Following termination on Day 10, colons were removed and measured. The length and weight of the colon were also assessed.
Compared to naive animals, animals given DSS water developed clinical signs of disease including weight loss and diarrhoea as well as gross pathological signs of disease on experiment termination. […] Shortened length and increased weight:length ratio indicates edema associated with ulcerative colitis.

[6] = listed as 5-chloro-4-hydroxy-1-methyl-2-oxo-N-phenyl-quinoline-3-carboxamide free acid

Structure (SMILES) | Hygroscopicity [1] | Reversible weight gain (DVS) [1] | Degradation temperature ([2]; listed as 5-chloro-4-hydroxy-1-methyl-2-oxo-N-phenyl-quinoline-3-carboxamide sodium salt, sodium salt) | Degradation temperature ([2]; listed as Example Compound 2, sodium salt) | Stability in water slurry: change in X-ray diffractogram [3] | Degradation temperature ([2]; listed as 5-chloro-4-hydroxy-1-methyl-2-oxo-N-phenyl-quinoline-3-carboxamide lithium salt, lithium salt) | Degradation temperature ([2]; listed as Example Compound 3, lithium salt) | Solubility in PBS (pH7.4) ([4]; PBS (pH 7.4), listed as 5-chloro-4-hydroxy-1-methyl-2-oxo-N-phenyl-quinoline-3-carboxamide free acid) | solubility ([4]; simulated colonic fluid (FaSSCof), fassgf or other biorelevant, thermodynamic from solid, SCF (FaSSCof), read-out: Solubility in simulated colonic fluid (SCF)) [µg/mL] | Colitis clinical score [5] | Colitis clinical score [5, 6] | Colitis clinical score ([5]; listed as 5-chloro-4-hydroxy-1-methyl-2-oxoN-phenyl-quinoline-3-carboxamide free acid) | Colon length ([5]; vs vehicle-treated controls) | Colon length ([5]; vs vehicle-treated controls, listed as 5-chloro-4-hydroxy-1-methyl-2-oxo-N-phenyl-quinoline-3-carboxamide free acid) | Body weight change (% change from day 1 of experiment) ([5]; vs vehicle-treated controls, FIG. 9) | Degradation temperature [2] | Degradation temperature [2, 6] [°C]
Cn1c(=O)c(C(=O)Nc2ccccc2)c(O)c2c(Cl)cccc21 [Example compound 2, 5-chloro-4-hydroxy-1-methyl-2-oxo-N-phenyl-quinoline-3-carboxamide sodium salt] | slightly hygroscopic | 1% | around 350 °C | 350 °C ±2 °C | slight changes | – | – | – | – | – | – | – | – | – | – | – | –
Cn1c(=O)c(C(=O)Nc2ccccc2)c([O-])c2c(Cl)cccc21.[Li+] [Example compound 3, 5-chloro-4-hydroxy-1-methyl-2-oxo-N-phenyl-quinoline-3-carboxamide lithium salt] | slightly hygroscopic | less than 0.25% | – | – | slight changes | around 360 °C | 360 °C ±2 °C | – | – | – | – | – | – | – | – | – | –
Cn1c(=O)c(C(=O)Nc2ccccc2)c(O)c2c(Cl)cccc21 [Free Acid, 5-chloro-4-hydroxy-1-methyl-2-oxo-N-phenyl-quinoline-3-carboxamide] | – | – | – | – | – | – | – | not quantifiable; also recorded: Non quantifiable | 3.44 (≈ 10.5 µM) | protective effect against the development of the clinical symptoms | significant reduction | lower colitis score | effective at reducing colon shortening | significant increase; also recorded: greater colon length | reduced weight loss | 260 °C ±2 °C | 260
